Results on 17 compounds are retold here after PubChem BioAssay AID248 (DTP/NCI, 2004).

Each structure is given as a SMILES string. Values joined by “and” are separate entries in the source; they are usually repeats but may differ in a detail not shown here. Identical values can stand only once. Toxic doses and inconclusive results are not listed.

This assay relates to L1210 leukemia ip in BDF1 mice, survival T/C. Kind of assay: NCI In Vivo Anticancer Drug Screen. Data for tumor model L1210 Leukemia (intraperitoneal) in B6D2F1 (BDF1) mice. Conditions: endpoint: mean survival time, higher = longer survival. Put shortly: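 Value reflects the ratio of survival in compound-treated mice to survival in vehicle-treated controls, with both groups carrying the same transplanted tumor.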

[1] abbreviates: dose: 100.0 mg/kg/injection, schedule: Q01DX001 (ip), vehicle: Klucel (hydroxypropylcellulose) (HPC).
Where [2] appears, read: dose: 200.0 mg/kg/injection, schedule: Q01DX001 (ip), vehicle: Klucel (hydroxypropylcellulose) (HPC).
The mark [3] stands for this setting: dose: 400.0 mg/kg/injection, schedule: Q01DX001 (ip), vehicle: Klucel (hydroxypropylcellulose) (HPC).
The mark [4] stands for this setting: dose: 50.0 mg/kg/injection, schedule: Q01DX009 (ip), vehicle: saline.
Where [5] appears, read: dose: 100.0 mg/kg/injection, schedule: Q04DX003 (ip), vehicle: saline.
Where [6] appears, read: dose: 200.0 mg/kg/injection, schedule: Q04DX003 (ip), vehicle: saline.
[7] abbreviates: dose: 400.0 mg/kg/injection, schedule: Q04DX003 (ip), vehicle: saline.
The mark [8] stands for this setting: dose: 100.0 mg/kg/injection, schedule: Q04DX003 (ip), vehicle: saline with Tween-80.

On to `O=S(=O)(Nc1cc(Cl)c(NS(=O)(=O)c2ccccc2)c(S(=O)(=O)c2ccccc2)c1Cl)c1ccccc1`, for which the T/C reads like this: under setting [1], 97 % of control; (dose: 100.0 mg/kg/injection, schedule: Q04DX003 (ip), vehicle: Klucel (hydroxypropylcellulose) (HPC)) 101 % of control; under setting [2], 93 % of control; (dose: 200.0 mg/kg/injection, schedule: Q04DX003 (ip), vehicle: Klucel (hydroxypropylcellulose) (HPC)) 102 % of control; under setting [3], 97 % of control; (dose: 400.0 mg/kg/injection, schedule: Q04DX003 (ip), vehicle: Klucel (hydroxypropylcellulose) (HPC)) 106 % of control.

For `NC(CSC(c1ccccc1)(c1ccccc1)c1ccc2ccccc2c1)C(=O)O` (centres undefined), the T/C by setting is: (dose: 0.74 mg/kg/injection, schedule: Q01DX009 (ip), vehicle: saline) 124 % of control; (dose: 3.13 mg/kg/injection, schedule: Q01DX009 (ip), vehicle: saline) 159 % of control; (dose: 6.25 mg/kg/injection, schedule: Q01DX009 (ip), vehicle: saline) 187 % of control; (dose: 6.3 mg/kg/injection, schedule: Q01DX009 (ip), vehicle: other) 166 % of control; (dose: 12.5 mg/kg/injection, schedule: Q01DX009 (ip), vehicle: saline) 108 % of control; (dose: 25.0 mg/kg/injection, schedule: Q01DX009 (ip), vehicle: other) 94 % of control. In addition, the T/C reads like this: (dose: 25.0 mg/kg/injection, schedule: Q01DX009 (ip), vehicle: saline) 225 % of control; under setting [4], 103 % of control.

In the case of `c1ccc2c(c1)CNC2`, the T/C under setting [5] is 104 % of control; the T/C (dose: 200.0 mg/kg/injection, schedule: Q01DX009 (ip), vehicle: saline) was 94 % of control; the T/C under setting [6] is 106 % of control; the T/C (dose: 400.0 mg/kg/injection, schedule: Q01DX009 (ip), vehicle: saline) was 92 % of control; the T/C under setting [7] was 97 % of control.

As to `CC(C)(C)OC(=O)NOc1ccc([N+](=O)[O-])cc1[N+](=O)[O-]`, the T/C runs as follows: (dose: 2.0 mg/kg/injection, schedule: Q01DX009 (ip), vehicle: saline with Tween-80) 95 % of control; (dose: 4.0 mg/kg/injection, schedule: Q01DX009 (ip), vehicle: saline with Tween-80) 106 % of control; (dose: 8.0 mg/kg/injection, schedule: Q01DX009 (ip), vehicle: saline with Tween-80) 107 % of control; (dose: 16.0 mg/kg/injection, schedule: Q01DX009 (ip), vehicle: saline with Tween-80) 101 % of control; (dose: 25.0 mg/kg/injection, schedule: Q04DX003 (ip), vehicle: saline with Tween-80) 105 % of control; (dose: 50.0 mg/kg/injection, schedule: Q04DX003 (ip), vehicle: saline with Tween-80) 92 % of control. Also, the T/C runs as follows: (dose: 75.0 mg/kg/injection, schedule: Q01DX001 (ip), vehicle: carboxymethylcellulose (CMC)) 96 % of control; under setting [8], 88 % of control.

`CCOC(=O)/C(C#N)=N\O`: the T/C is 98 % of control (dose: 25.0 mg/kg/injection, schedule: Q04DX003 (ip), vehicle: saline); 111 % of control under setting [4]; 111 % of control (dose: 50.0 mg/kg/injection, schedule: Q04DX003 (ip), vehicle: saline); 90 % of control (dose: 100.0 mg/kg/injection, schedule: Q01DX009 (ip), vehicle: saline); 104 % of control and 88 % of control under setting [5].

As for `O=COCC1CCC(COC=O)CC1` (centres undefined), the T/C runs as follows: (dose: 222.0 mg/kg/injection, schedule: Q01DX Z (ip), vehicle: methylcellulose (MC)) 94 % of control; (dose: 333.0 mg/kg/injection, schedule: Q01DX Z (ip), vehicle: methylcellulose (MC)) 94 % of control; (dose: 500.0 mg/kg/injection, schedule: Q01DX Z (ip), vehicle: methylcellulose (MC)) 105 % of control.

On to `NCC(NCc1ccccc1)(c1ccccc1)c1ccccc1`, for which the T/C runs as follows: (dose: 20.0 mg/kg/injection, schedule: Q04DX003 (ip), vehicle: Klucel (hydroxypropylcellulose) (HPC)) 94 % of control; (dose: 40.0 mg/kg/injection, schedule: Q04DX003 (ip), vehicle: Klucel (hydroxypropylcellulose) (HPC)) 96 % of control; (dose: 80.0 mg/kg/injection, schedule: Q04DX003 (ip), vehicle: Klucel (hydroxypropylcellulose) (HPC)) 102 % of control.

In the case of `Nc1nc(N)c(CCc2ccccc2)c(=O)[nH]1`, the T/C reads like this: under setting [8], 100 % of control; (dose: 200.0 mg/kg/injection, schedule: Q04DX003 (ip), vehicle: saline with Tween-80) 94 % of control; (dose: 400.0 mg/kg/injection, schedule: Q04DX003 (ip), vehicle: saline with Tween-80) 94 % of control.

As for `CC1(C)CCC(=NO)CC1`, the T/C is, setting by setting: (dose: 75.0 mg/kg/injection, schedule: Q01DX001 (ip), vehicle: other) 103 % of control; (dose: 150.0 mg/kg/injection, schedule: Q01DX001 (ip), vehicle: other) 97 % of control.

For `Cc1cc([P+](c2ccccc2)(c2ccccc2)c2ccccc2)c(C)cc1[P+](c1ccccc1)(c1ccccc1)c1ccccc1`, the T/C runs as follows: (dose: 0.37 mg/kg/injection, schedule: Q04DX003 (ip), vehicle: Klucel (hydroxypropylcellulose) (HPC)) 96 % of control; (dose: 0.75 mg/kg/injection, schedule: Q04DX003 (ip), vehicle: Klucel (hydroxypropylcellulose) (HPC)) 106 % of control; (dose: 1.5 mg/kg/injection, schedule: Q04DX003 (ip), vehicle: Klucel (hydroxypropylcellulose) (HPC)) 93 % of control; (dose: 3.0 mg/kg/injection, schedule: Q04DX003 (ip), vehicle: Klucel (hydroxypropylcellulose) (HPC)) 91 % of control.

`NC(N)=N/N=C/CO`: the T/C runs as follows: (dose: 7.5 mg/kg/injection, schedule: Q01DX Z (oral), vehicle: saline) 106 % of control; (dose: 15.0 mg/kg/injection, schedule: Q01DX Z (oral), vehicle: saline) 100 % of control; (dose: 30.0 mg/kg/injection, schedule: Q01DX Z (oral), vehicle: saline) 107 % of control; (dose: 60.0 mg/kg/injection, schedule: Q01DX Z (oral), vehicle: saline) 101 % of control; (dose: 120.0 mg/kg/injection, schedule: Q01DX Z (oral), vehicle: saline) 102 % of control; (dose: 240.0 mg/kg/injection, schedule: Q01DX Z (oral), vehicle: saline) 110 % of control.

`CN(Cc1ccccc1)C(=O)COc1ccc(Cl)c(Cl)c1`: the T/C is 106 % of control under setting [1], 96 % of control under setting [2] and 102 % of control under setting [3].

On to `CCOC(=O)c1c(C)[nH]oc1=O`, for which the T/C reads like this: under setting [5], 111 % of control; under setting [6], 102 % of control; under setting [7], 96 % of control.

As to `Nc1nc(=S)c2[nH]c(=S)[nH]c2[nH]1`, the T/C (dose: 12.0 mg/kg/injection, schedule: Q01DX009 (ip), vehicle: saline) was 119 % of control; the T/C (dose: 15.0 mg/kg/injection, schedule: Q01DX Z (ip), vehicle: saline) was 119 % of control; the T/C (dose: 23.0 mg/kg/injection, schedule: Q01DX Z (ip), vehicle: saline) was 124 % of control; the T/C (dose: 175.0 mg/kg/injection, schedule: Q01DX001 (ip), vehicle: saline) is 121 % of control; the T/C (dose: 400.0 mg/kg/injection, schedule: Q01DX Z (ip), vehicle: carboxymethylcellulose (CMC)) is 98 % of control.

Regarding `Cc1cc([N+](=O)[O-])c(NCCOC(=O)c2ccccc2Cl)c([N+](=O)[O-])c1`, the T/C is, setting by setting: (dose: 100.0 mg/kg/injection, schedule: Q01DX009 (ip), vehicle: Klucel (hydroxypropylcellulose) (HPC)) 102 % of control; (dose: 200.0 mg/kg/injection, schedule: Q01DX009 (ip), vehicle: Klucel (hydroxypropylcellulose) (HPC)) 103 % of control; (dose: 400.0 mg/kg/injection, schedule: Q01DX009 (ip), vehicle: Klucel (hydroxypropylcellulose) (HPC)) 102 % of control.

Consider `CC1C2C(=O)C3(C(C)C(=O)O)CCC2(C)C3CC12OCCO2` (centres undefined), for which the T/C under setting [1] was 95 % of control, the T/C under setting [2] is 108 % of control and the T/C under setting [3] is 97 % of control.

Consider `Oc1ccc2ccccc2c1N=Nc1cc[c]([Hg][Cl])cc1`, for which the T/C is 91 % of control (dose: 5.0 mg/kg/injection, schedule: Q01DX001 (ip), vehicle: saline); 107 % of control (dose: 10.0 mg/kg/injection, schedule: Q01DX001 (ip), vehicle: saline); 96 % of control (dose: 20.0 mg/kg/injection, schedule: Q01DX001 (ip), vehicle: saline); 100 % of control (dose: 40.0 mg/kg/injection, schedule: Q01DX001 (ip), vehicle: saline).
